Assays:
Assay in all cases: DiscoverX KinomeScreen competition binding assay (kinase selectivity panel)
[1] = target: T1, panel of ninety-seven kinases (Homo sapiens, UniProt P07949); conditions: RET; screened at 3000 nM
T1 construct: purchased DiscoverX; host or cells: E. coli (BL21-derived, T7 phage display) or HEK-293
Method: (§1) This has been investigated by testing atropisomer A-2 for off-target activity against a panel of ninety-seven kinases distributed across the kinome at a concentration of 3 μM using the DiscoverX KinomeScreen assay. The DiscoverX KinomeScreen assay is a site-directed competition binding assay which measures the binding affinity of a compound to a kinase, by use of a solid supported control compound which can bind or capture the kinases in solution. In the absence of a kinase-inhibitor test compound, all of the kinase will bind to the solid support. If a kinase-inhibitor test compound is added to the assay mix, the amount of kinase binding to the solid support will be reduced, the extent of reduction being dependent on the potency of the test compound as a kinase inhibitor. […] For most assays, kinase-tagged T7 phage strains were grown in parallel in 24-well blocks in an E. coli host derived from the BL21 strain. E. coli were grown to log-phase and infected with T7 phage from a frozen stock (multiplicity of infection=0.4) and incubated with shaking at 32° C. until lysis (90-150 minutes). The lysates were centrifuged (6,000×g) and filtered (0.2 μm) to remove cell debris. The remaining kinases were produced in HEK-293 cells and subsequently tagged with DNA for qPCR detection. Streptavidin-coated magnetic beads were treated with biotinylated small molecule ligands for 30 minutes at room temperature to generate affinity resins for kinase assays. The liganded beads were blocked with excess biotin and washed with blocking buffer (SeaBlock (Pierce), 1% BSA, 0.05% Tween 20, 1 mM DTT) to remove unbound ligand and to reduce non-specific phage binding. […] Test compounds were prepared as 40× stocks in 100% DMSO and directly diluted into the assay. All reactions were performed in polypropylene 384-well plates in a final volume of 0.02 ml. […] The beads were then re-suspended in elution buffer (1×PBS, 0.05% Tween 20, 0.5 μM non-biotinylated affinity ligand) and incubated at room temperature with shaking for 30 minutes. The kinase concentration in the eluates was measured by qPCR. Compounds that bind the kinase active site and directly (sterically) or indirectly (allosterically) prevent kinase binding to the immobilized ligand, will reduce the amount of kinase captured on the solid support. […] The strength of binding of the test molecule to the kinase can be expressed as the percent control (% Ctrl) The compound(s) were screened at 3000 nM concentration, and results for primary screen binding interactions are reported as ‘% Ctrl’, where lower numbers indicate stronger hits in the matrix on the following page(s). [formula] • negative control=DMSO (100% Ctrl) • positive control=control compound (0% Ctrl)

[2] = target: T2, panel of ninety-seven kinases (Homo sapiens, UniProt Q8NI60); conditions: CABC1; screened at 3000 nM
T2 construct: purchased DiscoverX; host or cells: E. coli (BL21-derived, T7 phage display) or HEK-293
Method: as §1

[3] = target: T3, panel of ninety-seven kinases (Homo sapiens, UniProt P78368); conditions: CSNK1G2; screened at 3000 nM
T3 construct: purchased DiscoverX; host or cells: E. coli (BL21-derived, T7 phage display) or HEK-293
Method: as §1

[4] = target: T4, panel of ninety-seven kinases (Homo sapiens, UniProt P04049); conditions: RAF1; screened at 3000 nM
T4 construct: purchased DiscoverX; host or cells: E. coli (BL21-derived, T7 phage display) or HEK-293
Method: as §1

[5] = system: panel of ninety-seven kinases; conditions: for % Ctrl @ 3 μM: screened at 3000 nM
Method: as §1

[6] = target: T5, panel of ninety-seven kinases (Homo sapiens, UniProt P07333); conditions: CSF1R; screened at 3000 nM
T5 construct: purchased DiscoverX; host or cells: E. coli (BL21-derived, T7 phage display) or HEK-293
Method: as §1

[7] = target: T6, panel of ninety-seven kinases (Homo sapiens, UniProt P45983); conditions: MAPK8; screened at 3000 nM
T6 construct: purchased DiscoverX; host or cells: E. coli (BL21-derived, T7 phage display) or HEK-293
Method: as §1

[8] = target: T7, panel of ninety-seven kinases (Homo sapiens, UniProt Q9H4B4); conditions: PLK3; screened at 3000 nM
T7 construct: purchased DiscoverX; host or cells: E. coli (BL21-derived, T7 phage display) or HEK-293
Method: as §1

[9] = target: T8, panel of ninety-seven kinases (Homo sapiens, UniProt O14920); conditions: IKBKB; screened at 3000 nM
T8 construct: purchased DiscoverX; host or cells: E. coli (BL21-derived, T7 phage display) or HEK-293
Method: as §1

[10] = target: T9, panel of ninety-seven kinases (Homo sapiens, UniProt P06213); conditions: INSR; screened at 3000 nM
T9 construct: purchased DiscoverX; host or cells: E. coli (BL21-derived, T7 phage display) or HEK-293
Method: as §1

[11] = target: T10, panel of ninety-seven kinases (Homo sapiens, UniProt P22607); conditions: FGFR3; screened at 3000 nM
T10 construct: purchased DiscoverX; host or cells: E. coli (BL21-derived, T7 phage display) or HEK-293
Method: as §1

[12] = target: T11, panel of ninety-seven kinases (Homo sapiens, UniProt Q9Y463); conditions: DYRK1B; screened at 3000 nM
T11 construct: purchased DiscoverX; host or cells: E. coli (BL21-derived, T7 phage display) or HEK-293
Method: as §1

[13] = target: T12, panel of ninety-seven kinases (Homo sapiens, UniProt Q96GD4); conditions: AURKB; screened at 3000 nM
T12 construct: purchased DiscoverX; host or cells: E. coli (BL21-derived, T7 phage display) or HEK-293
Method: as §1

[14] = target: T13, panel of ninety-seven kinases (Homo sapiens, UniProt O14965); conditions: AURKA; screened at 3000 nM
T13 construct: purchased DiscoverX; host or cells: E. coli (BL21-derived, T7 phage display) or HEK-293
Method: as §1

[15] = target: T14, panel of ninety-seven kinases (Homo sapiens, UniProt O14757); conditions: CHEK1; screened at 3000 nM
T14 construct: purchased DiscoverX; host or cells: E. coli (BL21-derived, T7 phage display) or HEK-293
Method: as §1

[16] = target: T15, panel of ninety-seven kinases (Homo sapiens, UniProt P51812); conditions: RPS6KA3; screened at 3000 nM
T15 construct: purchased DiscoverX; host or cells: E. coli (BL21-derived, T7 phage display) or HEK-293
Method: as §1

[17] = target: T16, panel of ninety-seven kinases (Homo sapiens, UniProt Q00526); conditions: CDK3; screened at 3000 nM
T16 construct: purchased DiscoverX; host or cells: E. coli (BL21-derived, T7 phage display) or HEK-293
Method: as §1

[18] = target: T17, panel of ninety-seven kinases (Homo sapiens, UniProt P35968); conditions: KDR; screened at 3000 nM
T17 construct: purchased DiscoverX; host or cells: E. coli (BL21-derived, T7 phage display) or HEK-293
Method: as §1

[19] = target: T18, panel of ninety-seven kinases (Homo sapiens, UniProt P36897); conditions: TGFBR1; screened at 3000 nM
T18 construct: purchased DiscoverX; host or cells: E. coli (BL21-derived, T7 phage display) or HEK-293
Method: as §1

[20] = target: T19, panel of ninety-seven kinases (Homo sapiens, UniProt Q13153); conditions: PAK1; screened at 3000 nM
T19 construct: purchased DiscoverX; host or cells: E. coli (BL21-derived, T7 phage display) or HEK-293
Method: as §1

[21] = target: T20, panel of ninety-seven kinases (Homo sapiens, UniProt P45984); conditions: MAPK9; screened at 3000 nM
T20 construct: purchased DiscoverX; host or cells: E. coli (BL21-derived, T7 phage display) or HEK-293
Method: as §1

[22] = target: T21, panel of ninety-seven kinases (Homo sapiens, UniProt Q06187); conditions: BTK; screened at 3000 nM
T21 construct: purchased DiscoverX; host or cells: E. coli (BL21-derived, T7 phage display) or HEK-293
Method: as §1

T17 sequence (P35968 20-1356): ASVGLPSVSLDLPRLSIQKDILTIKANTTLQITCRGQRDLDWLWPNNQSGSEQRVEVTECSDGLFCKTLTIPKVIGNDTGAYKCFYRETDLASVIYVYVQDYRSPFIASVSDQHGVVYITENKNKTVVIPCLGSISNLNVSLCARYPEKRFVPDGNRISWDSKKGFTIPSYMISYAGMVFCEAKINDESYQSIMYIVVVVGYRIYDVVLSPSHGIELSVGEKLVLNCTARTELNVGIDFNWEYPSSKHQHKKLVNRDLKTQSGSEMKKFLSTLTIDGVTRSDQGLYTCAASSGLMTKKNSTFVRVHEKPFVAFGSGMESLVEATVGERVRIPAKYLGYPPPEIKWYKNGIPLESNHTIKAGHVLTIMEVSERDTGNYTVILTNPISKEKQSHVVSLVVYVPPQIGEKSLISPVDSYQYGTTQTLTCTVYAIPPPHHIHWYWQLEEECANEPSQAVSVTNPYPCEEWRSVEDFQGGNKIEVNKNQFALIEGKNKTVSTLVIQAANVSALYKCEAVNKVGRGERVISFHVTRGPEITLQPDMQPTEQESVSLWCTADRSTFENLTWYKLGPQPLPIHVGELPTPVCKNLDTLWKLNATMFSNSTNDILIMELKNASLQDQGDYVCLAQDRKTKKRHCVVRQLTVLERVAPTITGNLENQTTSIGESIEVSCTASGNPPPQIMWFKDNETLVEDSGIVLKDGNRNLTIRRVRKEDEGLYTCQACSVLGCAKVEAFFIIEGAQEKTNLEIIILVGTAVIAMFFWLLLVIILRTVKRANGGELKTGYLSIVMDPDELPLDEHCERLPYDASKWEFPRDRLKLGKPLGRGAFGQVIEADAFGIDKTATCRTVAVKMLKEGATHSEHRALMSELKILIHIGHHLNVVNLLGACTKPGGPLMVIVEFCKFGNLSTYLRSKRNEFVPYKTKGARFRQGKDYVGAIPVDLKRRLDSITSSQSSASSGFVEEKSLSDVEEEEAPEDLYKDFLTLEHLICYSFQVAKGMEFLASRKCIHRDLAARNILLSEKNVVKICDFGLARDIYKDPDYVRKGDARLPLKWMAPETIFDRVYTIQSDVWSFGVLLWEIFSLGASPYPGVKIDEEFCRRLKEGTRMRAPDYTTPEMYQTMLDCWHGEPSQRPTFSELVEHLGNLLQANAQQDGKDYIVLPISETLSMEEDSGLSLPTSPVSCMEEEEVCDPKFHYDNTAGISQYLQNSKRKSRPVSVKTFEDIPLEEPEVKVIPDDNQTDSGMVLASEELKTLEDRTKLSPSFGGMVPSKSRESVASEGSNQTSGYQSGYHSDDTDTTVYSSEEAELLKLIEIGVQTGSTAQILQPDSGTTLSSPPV
T10 sequence (P22607 23-806): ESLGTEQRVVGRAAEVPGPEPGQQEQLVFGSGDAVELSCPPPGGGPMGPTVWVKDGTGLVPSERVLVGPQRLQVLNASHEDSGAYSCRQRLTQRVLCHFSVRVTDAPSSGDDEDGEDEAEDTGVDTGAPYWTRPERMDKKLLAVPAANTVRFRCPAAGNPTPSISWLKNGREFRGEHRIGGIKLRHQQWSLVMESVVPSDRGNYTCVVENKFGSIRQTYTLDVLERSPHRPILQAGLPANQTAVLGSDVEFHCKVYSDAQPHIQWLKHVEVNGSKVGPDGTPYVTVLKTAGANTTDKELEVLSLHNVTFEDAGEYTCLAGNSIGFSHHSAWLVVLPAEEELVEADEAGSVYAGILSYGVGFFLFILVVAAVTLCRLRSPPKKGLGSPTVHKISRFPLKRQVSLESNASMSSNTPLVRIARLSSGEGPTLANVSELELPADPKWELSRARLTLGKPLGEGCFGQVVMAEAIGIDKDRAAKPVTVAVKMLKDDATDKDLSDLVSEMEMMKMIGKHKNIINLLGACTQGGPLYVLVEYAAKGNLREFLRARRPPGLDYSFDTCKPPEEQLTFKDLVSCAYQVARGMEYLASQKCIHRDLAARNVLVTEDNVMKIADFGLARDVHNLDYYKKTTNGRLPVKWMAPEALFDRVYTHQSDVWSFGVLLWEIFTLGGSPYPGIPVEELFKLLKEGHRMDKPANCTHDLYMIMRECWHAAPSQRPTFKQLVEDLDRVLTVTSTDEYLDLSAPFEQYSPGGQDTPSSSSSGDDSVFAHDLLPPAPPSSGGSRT
T9 sequence (P06213 28-1382): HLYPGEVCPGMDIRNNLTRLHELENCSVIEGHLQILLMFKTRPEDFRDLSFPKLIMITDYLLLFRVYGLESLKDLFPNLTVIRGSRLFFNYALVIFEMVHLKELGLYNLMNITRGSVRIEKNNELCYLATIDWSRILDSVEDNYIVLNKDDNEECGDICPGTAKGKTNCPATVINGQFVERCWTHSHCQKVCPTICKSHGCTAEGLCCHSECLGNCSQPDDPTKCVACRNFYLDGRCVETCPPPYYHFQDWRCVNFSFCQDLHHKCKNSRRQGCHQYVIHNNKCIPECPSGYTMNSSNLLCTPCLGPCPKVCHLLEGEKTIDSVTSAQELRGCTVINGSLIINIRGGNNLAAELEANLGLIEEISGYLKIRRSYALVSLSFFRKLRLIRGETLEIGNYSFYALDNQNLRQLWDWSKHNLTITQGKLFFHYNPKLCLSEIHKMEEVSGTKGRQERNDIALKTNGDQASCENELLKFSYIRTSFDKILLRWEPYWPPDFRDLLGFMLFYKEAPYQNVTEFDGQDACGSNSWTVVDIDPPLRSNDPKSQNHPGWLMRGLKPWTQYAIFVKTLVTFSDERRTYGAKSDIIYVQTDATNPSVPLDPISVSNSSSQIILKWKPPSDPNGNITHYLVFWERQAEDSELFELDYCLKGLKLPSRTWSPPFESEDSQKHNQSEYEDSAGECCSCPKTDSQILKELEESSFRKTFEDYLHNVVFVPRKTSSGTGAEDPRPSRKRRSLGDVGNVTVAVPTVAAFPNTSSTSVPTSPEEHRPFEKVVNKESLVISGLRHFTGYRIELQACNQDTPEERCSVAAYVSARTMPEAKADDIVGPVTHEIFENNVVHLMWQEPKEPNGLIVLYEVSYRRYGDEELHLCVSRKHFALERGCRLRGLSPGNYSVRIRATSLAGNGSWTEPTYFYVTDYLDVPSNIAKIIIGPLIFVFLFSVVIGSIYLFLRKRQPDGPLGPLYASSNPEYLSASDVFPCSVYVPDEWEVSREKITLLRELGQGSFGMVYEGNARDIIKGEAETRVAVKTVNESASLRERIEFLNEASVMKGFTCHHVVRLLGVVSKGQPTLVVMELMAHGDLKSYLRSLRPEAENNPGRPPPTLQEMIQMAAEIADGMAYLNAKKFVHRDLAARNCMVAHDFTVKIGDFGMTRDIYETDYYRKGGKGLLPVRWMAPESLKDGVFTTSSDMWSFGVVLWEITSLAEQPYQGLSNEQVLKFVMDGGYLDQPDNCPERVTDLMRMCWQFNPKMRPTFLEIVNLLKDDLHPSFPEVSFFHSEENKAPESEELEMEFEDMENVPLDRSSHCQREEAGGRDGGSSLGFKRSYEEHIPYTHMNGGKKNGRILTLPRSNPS
T1 sequence (P07949 29-1114): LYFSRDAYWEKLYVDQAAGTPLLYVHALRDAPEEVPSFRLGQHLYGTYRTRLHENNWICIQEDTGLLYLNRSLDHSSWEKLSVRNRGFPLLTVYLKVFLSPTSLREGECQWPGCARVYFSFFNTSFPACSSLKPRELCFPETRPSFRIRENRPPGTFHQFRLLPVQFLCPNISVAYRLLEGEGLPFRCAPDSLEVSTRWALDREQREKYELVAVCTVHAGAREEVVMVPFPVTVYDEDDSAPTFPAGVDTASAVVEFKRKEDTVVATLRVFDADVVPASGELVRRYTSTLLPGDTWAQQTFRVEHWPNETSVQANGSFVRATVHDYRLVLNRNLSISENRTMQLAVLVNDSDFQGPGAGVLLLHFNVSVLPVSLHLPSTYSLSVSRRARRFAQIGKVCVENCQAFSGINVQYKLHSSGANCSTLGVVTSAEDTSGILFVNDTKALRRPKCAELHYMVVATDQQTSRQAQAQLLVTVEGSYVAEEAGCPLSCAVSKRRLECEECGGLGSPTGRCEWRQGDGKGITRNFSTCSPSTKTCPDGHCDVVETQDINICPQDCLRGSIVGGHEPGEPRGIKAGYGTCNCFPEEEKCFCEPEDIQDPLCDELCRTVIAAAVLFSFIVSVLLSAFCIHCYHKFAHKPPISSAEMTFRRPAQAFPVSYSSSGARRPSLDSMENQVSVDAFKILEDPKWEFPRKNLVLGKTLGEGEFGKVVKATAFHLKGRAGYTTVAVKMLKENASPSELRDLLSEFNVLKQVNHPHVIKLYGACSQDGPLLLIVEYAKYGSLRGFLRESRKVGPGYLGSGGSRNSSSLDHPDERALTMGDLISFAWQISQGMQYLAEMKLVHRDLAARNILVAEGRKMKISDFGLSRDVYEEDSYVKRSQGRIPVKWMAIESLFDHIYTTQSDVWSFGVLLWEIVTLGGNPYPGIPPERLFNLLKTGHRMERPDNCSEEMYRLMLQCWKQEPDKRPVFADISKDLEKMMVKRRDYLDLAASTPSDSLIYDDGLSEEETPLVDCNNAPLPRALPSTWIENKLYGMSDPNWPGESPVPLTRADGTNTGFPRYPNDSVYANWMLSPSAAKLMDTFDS
T14 sequence (O14757 whole entry): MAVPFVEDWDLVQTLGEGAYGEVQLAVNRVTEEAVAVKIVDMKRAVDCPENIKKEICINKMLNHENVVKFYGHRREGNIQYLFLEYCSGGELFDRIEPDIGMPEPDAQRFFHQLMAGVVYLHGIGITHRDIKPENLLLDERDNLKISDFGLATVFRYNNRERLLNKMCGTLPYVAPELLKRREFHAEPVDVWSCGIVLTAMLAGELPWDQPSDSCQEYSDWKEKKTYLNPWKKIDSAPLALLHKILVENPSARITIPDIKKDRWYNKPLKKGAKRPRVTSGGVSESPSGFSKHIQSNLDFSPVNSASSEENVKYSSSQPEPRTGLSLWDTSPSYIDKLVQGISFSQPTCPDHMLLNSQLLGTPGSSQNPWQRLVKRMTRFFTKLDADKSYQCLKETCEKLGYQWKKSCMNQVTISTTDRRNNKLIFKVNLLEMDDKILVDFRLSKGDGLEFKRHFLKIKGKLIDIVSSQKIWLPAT

CN(C)CCNC(=O)c1ccc(-c2ccc(-c3ccc(Cl)cc3)n2-c2ccccc2C(F)(F)F)cc1 (single isomer, unassigned) [Atropisomer A-2]
% Ctrl @ 3 μM [1]: 95 % Ctrl
% Ctrl @ 3 μM [2]: 63 % Ctrl
% Ctrl @ 3 μM [3]: 100 % Ctrl
% Ctrl @ 3 μM [4]: 92 % Ctrl
binding activity against panel kinases (% Ctrl) ([5]; 3 μM (3000 nM), ninety-seven kinases): poor or non-existent binding activity
% Ctrl @ 3 μM ([5]; EGFR): 100 % Ctrl
% Ctrl @ 3 μM ([5]; KIT): 100 % Ctrl
% Ctrl @ 3 μM [6]: 100 % Ctrl
% Ctrl @ 3 μM [7]: 77 % Ctrl
% Ctrl @ 3 μM [8]: 87 % Ctrl
% Ctrl @ 3 μM [9]: 96 % Ctrl
% Ctrl @ 3 μM [10]: 100 % Ctrl
% Ctrl @ 3 μM [11]: 92 % Ctrl
% Ctrl @ 3 μM [12]: 97 % Ctrl
% Ctrl @ 3 μM [13]: 84 % Ctrl
% Ctrl @ 3 μM [14]: 98 % Ctrl
% Ctrl @ 3 μM [15]: 100 % Ctrl
% Ctrl @ 3 μM [16]: 100 % Ctrl
% Ctrl @ 3 μM [17]: 100 % Ctrl
% Ctrl @ 3 μM [18]: 100 % Ctrl
% Ctrl @ 3 μM [19]: 95 % Ctrl
% Ctrl @ 3 μM [20]: 87 % Ctrl
% Ctrl @ 3 μM [21]: 80 % Ctrl
% Ctrl @ 3 μM [22]: 94 % Ctrl

— US12637424B2, “Pharmaceutical salt of an arylpyrrole derivative” (SENTINEL ONCOLOGY LIMITED, priority 2020, dated 2026)
